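A five-concentration, 48-hour dose response in 96-well plates underlies each endpoint, interpolated linearly between surrounding concentrations. At the GI50, growth is halved. TGI denotes the concentration required for complete inhibition of growth.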
Tests used:
Assay in all cases: DTP human tumour cell line panel, 48 h
HL-60(TB) leukemia = test system: HL-60(TB) leukemia
786-0 renal = test system: 786-0 renal
A549 NSCLC = test system: A549 NSCLC
HOP-92 NSCLC = test system: HOP-92 NSCLC
CAKI-1 renal = test system: CAKI-1 renal
RPMI-8226 leukemia = test system: RPMI-8226 leukemia
HS 578T breast = test system: HS 578T breast
SN12C renal = test system: SN12C renal
UACC-257 melanoma = test system: UACC-257 melanoma
COLO 205 colon = test system: COLO 205 colon
NCI-H23 lung = test system: NCI-H23 lung
MOLT-4 leukemia = test system: MOLT-4 leukemia
KM12 colon = test system: KM12 colon
EKVX NSCLC = test system: EKVX NSCLC
SF-268 CNS = test system: SF-268 CNS
SR leukemia = test system: SR leukemia
SK-OV-3 ovarian = test system: SK-OV-3 ovarian
SK-MEL-28 melanoma = test system: SK-MEL-28 melanoma
NCI-H522 lung = test system: NCI-H522 lung
IGROV1 ovarian = test system: IGROV1 ovarian
RXF 393 renal = test system: RXF 393 renal
OVCAR-8 ovarian = test system: OVCAR-8 ovarian
PC-3 prostate = test system: PC-3 prostate
UACC-62 melanoma = test system: UACC-62 melanoma
NCI/ADR-RES ovarian = test system: NCI/ADR-RES ovarian
T-47D breast = test system: T-47D breast
TK-10 renal = test system: TK-10 renal
SW-620 colon = test system: SW-620 colon
LOX IMVI melanoma = test system: LOX IMVI melanoma
SNB-75 CNS = test system: SNB-75 CNS
HT29 colon = test system: HT29 colon
NCI-H226 lung = test system: NCI-H226 lung
NCI-H460 lung = test system: NCI-H460 lung
M14 melanoma = test system: M14 melanoma
SK-MEL-5 melanoma = test system: SK-MEL-5 melanoma
MCF7 breast = test system: MCF7 breast
MALME-3M melanoma = test system: MALME-3M melanoma
SNB-19 CNS = test system: SNB-19 CNS
HCT-15 colon = test system: HCT-15 colon
MDA-MB-435 = test system: MDA-MB-435
SF-295 CNS = test system: SF-295 CNS
SF-539 CNS = test system: SF-539 CNS
HCT-116 colon = test system: HCT-116 colon
UO-31 renal = test system: UO-31 renal
ACHN renal = test system: ACHN renal
HCC-2998 colon = test system: HCC-2998 colon
HOP-62 NSCLC = test system: HOP-62 NSCLC
MDA-MB-231 breast = test system: MDA-MB-231 breast
BT-549 breast = test system: BT-549 breast
DU-145 prostate = test system: DU-145 prostate
OVCAR-4 ovarian = test system: OVCAR-4 ovarian
K-562 leukemia = test system: K-562 leukemia
OVCAR-5 ovarian = test system: OVCAR-5 ovarian
CCRF-CEM leukemia = test system: CCRF-CEM leukemia
OVCAR-3 ovarian = test system: OVCAR-3 ovarian
U251 CNS = test system: U251 CNS
A498 renal = test system: A498 renal

Compound: NC1=NNC2(C(N)=N1)c1ccccc1-c1ccccc12
- TGI (HL-60(TB) leukemia): > 10 µM
- TGI (786-0 renal): > 10 µM
- TGI (A549 NSCLC): > 10 µM
- TGI (HOP-92 NSCLC): > 10 µM
- TGI (CAKI-1 renal): > 10 µM
- TGI (RPMI-8226 leukemia): > 10 µM
- TGI (HS 578T breast): > 10 µM
- TGI (SN12C renal): > 10 µM
- TGI (UACC-257 melanoma): > 10 µM
- TGI (COLO 205 colon): > 10 µM
- TGI (NCI-H23 lung): > 10 µM
- TGI (MOLT-4 leukemia): > 10 µM
- TGI (KM12 colon): > 10 µM
- TGI (EKVX NSCLC): > 10 µM
- TGI (SF-268 CNS): > 10 µM
- TGI (SR leukemia): > 10 µM
- TGI (SK-OV-3 ovarian): > 10 µM
- TGI (SK-MEL-28 melanoma): > 10 µM
- TGI (NCI-H522 lung): > 10 µM
- TGI (IGROV1 ovarian): > 10 µM
- TGI (RXF 393 renal): > 10 µM
- TGI (OVCAR-8 ovarian): > 10 µM
- TGI (PC-3 prostate): > 10 µM
- TGI (UACC-62 melanoma): > 10 µM
- TGI (NCI/ADR-RES ovarian): > 10 µM
- TGI (T-47D breast): > 10 µM
- TGI (TK-10 renal): > 10 µM
- TGI (SW-620 colon): > 10 µM
- TGI (LOX IMVI melanoma): > 10 µM
- TGI (SNB-75 CNS): > 10 µM
- TGI (HT29 colon): > 10 µM
- TGI (NCI-H226 lung): > 10 µM
- TGI (NCI-H460 lung): > 10 µM
- TGI (M14 melanoma): > 10 µM
- TGI (SK-MEL-5 melanoma): > 10 µM
- TGI (MCF7 breast): > 10 µM
- TGI (MALME-3M melanoma): > 10 µM
- TGI (SNB-19 CNS): > 10 µM
- TGI (HCT-15 colon): > 10 µM
- TGI (MDA-MB-435): > 10 µM
- TGI (SF-295 CNS): > 10 µM
- TGI (SF-539 CNS): > 10 µM
- TGI (HCT-116 colon): > 10 µM
- TGI (UO-31 renal): > 10 µM
- TGI (ACHN renal): > 10 µM
- TGI (HCC-2998 colon): > 10 µM
- TGI (HOP-62 NSCLC): > 10 µM
- TGI (MDA-MB-231 breast): > 10 µM
- TGI (BT-549 breast): > 10 µM
- TGI (DU-145 prostate): > 10 µM
- TGI (OVCAR-4 ovarian): > 10 µM

Compound: COc1cc(-c2cc(-c3nc4ccc(Cl)cc4[nH]3)[nH]n2)cc(OC)c1OC
- GI50 (HL-60(TB) leukemia): 2.49 µM
- TGI (HL-60(TB) leukemia): 7.47 µM
- GI50 (786-0 renal): 5.32 µM
- TGI (786-0 renal): 18.3 µM
- GI50 (A549 NSCLC): 2.96 µM
- TGI (A549 NSCLC): 13.1 µM
- GI50 (CAKI-1 renal): 2.8 µM
- TGI (CAKI-1 renal): 11.1 µM
- GI50 (RPMI-8226 leukemia): 1.65 µM
- TGI (RPMI-8226 leukemia): 4.21 µM
- GI50 (HS 578T breast): 3.58 µM
- TGI (HS 578T breast): 45.5 µM
- GI50 (SN12C renal): 3.06 µM
- TGI (SN12C renal): 15.6 µM
- GI50 (UACC-257 melanoma): 2.6 µM
- TGI (UACC-257 melanoma): 7.55 µM
- GI50 (COLO 205 colon): 3.18 µM
- TGI (COLO 205 colon): 10 µM
- GI50 (NCI-H23 lung): 2.73 µM
- TGI (NCI-H23 lung): 8.89 µM
- GI50 (MOLT-4 leukemia): 2.02 µM
- TGI (MOLT-4 leukemia): 4.82 µM
- GI50 (KM12 colon): 3.45 µM
- TGI (KM12 colon): 10.6 µM
- GI50 (K-562 leukemia): 3.04 µM
- TGI (K-562 leukemia): > 100 µM
- GI50 (OVCAR-5 ovarian): 12.1 µM
- TGI (OVCAR-5 ovarian): 30.2 µM
- GI50 (SF-268 CNS): 3.6 µM
- TGI (SF-268 CNS): 13.2 µM
- GI50 (SR leukemia): 3.32 µM
- TGI (SR leukemia): 37.6 µM
- GI50 (SK-OV-3 ovarian): 4.47 µM
- TGI (SK-OV-3 ovarian): 14.3 µM
- GI50 (SK-MEL-28 melanoma): 2.42 µM
- TGI (SK-MEL-28 melanoma): 7.11 µM
- GI50 (NCI-H522 lung): 1.9 µM
- TGI (NCI-H522 lung): 5.73 µM
- GI50 (IGROV1 ovarian): 3.42 µM
- TGI (IGROV1 ovarian): 16.3 µM
- GI50 (RXF 393 renal): 3.26 µM
- TGI (RXF 393 renal): 14.5 µM
- GI50 (OVCAR-8 ovarian): 2.26 µM
- TGI (OVCAR-8 ovarian): 5.59 µM
- GI50 (PC-3 prostate): 2.47 µM
- TGI (PC-3 prostate): 8.29 µM
- GI50 (UACC-62 melanoma): 1.97 µM
- TGI (UACC-62 melanoma): 4.95 µM
- GI50 (CCRF-CEM leukemia): 2.48 µM
- TGI (CCRF-CEM leukemia): 7.56 µM
- GI50 (T-47D breast): 1.58 µM
- TGI (T-47D breast): 4.54 µM
- GI50 (TK-10 renal): 3.52 µM
- TGI (TK-10 renal): 15.8 µM
- GI50 (OVCAR-3 ovarian): 3.5 µM
- TGI (OVCAR-3 ovarian): 12.1 µM
- GI50 (SW-620 colon): 4.99 µM
- TGI (SW-620 colon): 18.6 µM
- GI50 (SNB-75 CNS): 2.71 µM
- TGI (SNB-75 CNS): 10.4 µM
- GI50 (HT29 colon): 4.14 µM
- TGI (HT29 colon): 16.4 µM
- GI50 (NCI-H226 lung): 1.88 µM
- TGI (NCI-H226 lung): 7.23 µM
- GI50 (NCI-H460 lung): 3.65 µM
- TGI (NCI-H460 lung): 14 µM
- GI50 (M14 melanoma): 2.92 µM
- TGI (M14 melanoma): 9.96 µM
- GI50 (SK-MEL-5 melanoma): 1.62 µM
- TGI (SK-MEL-5 melanoma): 3.48 µM
- GI50 (MCF7 breast): 2.17 µM
- TGI (MCF7 breast): 7.75 µM
- GI50 (MALME-3M melanoma): 2.58 µM
- TGI (MALME-3M melanoma): 8.32 µM
- GI50 (SNB-19 CNS): 7.25 µM
- TGI (SNB-19 CNS): 20.4 µM
- GI50 (HCT-15 colon): 2.9 µM
- TGI (HCT-15 colon): 13.2 µM
- GI50 (MDA-MB-435): 3.3 µM
- TGI (MDA-MB-435): 12.7 µM
- GI50 (SF-295 CNS): 2.35 µM
- TGI (SF-295 CNS): 11.2 µM
- GI50 (SF-539 CNS): 4.66 µM
- TGI (SF-539 CNS): 18.3 µM
- GI50 (U251 CNS): 3.38 µM
- TGI (U251 CNS): 14.1 µM
- GI50 (HCT-116 colon): 3.45 µM
- TGI (HCT-116 colon): 12.2 µM
- GI50 (UO-31 renal): 2.64 µM
- TGI (UO-31 renal): 11.2 µM
- GI50 (ACHN renal): 2.96 µM
- TGI (ACHN renal): 12.9 µM
- GI50 (HCC-2998 colon): 5.98 µM
- TGI (HCC-2998 colon): 18.7 µM
- GI50 (HOP-62 NSCLC): 3.11 µM
- TGI (HOP-62 NSCLC): 10.7 µM
- GI50 (MDA-MB-231 breast): 3.94 µM
- TGI (MDA-MB-231 breast): 24.3 µM
- GI50 (BT-549 breast): 2.54 µM
- TGI (BT-549 breast): 8.35 µM
- GI50 (DU-145 prostate): 3.27 µM
- TGI (DU-145 prostate): 13.4 µM
- GI50 (OVCAR-4 ovarian): 1.38 µM
- TGI (OVCAR-4 ovarian): 4.37 µM
- GI50 (A498 renal): 2.1 µM
- TGI (A498 renal): 11 µM
